Laboratory results as given in patent US12319655B2, “RAF kinase inhibitors and methods of use thereof” (Deciphera Pharmaceuticals, LLC, priority 2021, dated 2025).

Key:
Miapaca-2 cells = experiment: MiaPaca-2 Combination Cell proliferation Assay (1) with cobimetinib; assay type: cell-based; details: MiaPaca-2 cell proliferation, read-out: MiaPaca-2 Combo (1) IC50
Protocol: MiaPaca-2 Combination Cell proliferation Assay (1)
Miapaca-2 cells (catalog #CRL-1420) are obtained from the American Type Culture Collect (ATCC, Manassas, VA). Briefly, cells were grown in DMEM supplemented with 10% characterized fetal bovine serum (Invitrogen, Carlsbad, CA), 2.5% New Zealand sourced horse serum and 1% Penicillin/Streptomycin/L-Glutamine at 37° C., 5% CO2, and 95% humidity. Cells are expanded until reaching 70-95% confluency at which point they are subcultured or harvested for assay use. A serial dilution of test compound was dispensed into multiple 96-well black clear bottom plates in triplicate. A serial dilution of complete growth medium containing cobimetinib was prepared at twice the final concentration and 100 μL was dispensed across the test compound titration in triplicate. Three thousand cells are added per well in 100 μL complete growth medium in each 96-well plate. Plates are incubated for 67-72 hours at 37° C., 5% CO2, and 95% humidity. At the end of the incubation, 40 μL of a 440 μM solution of resazurin (Sigma, St. Louis, MO) in PBS is added to each well of the plate and plates are incubated for an additional 5-7 hours at 37° C., 5% CO2, and 95% humidity. Plates are read on a Synergy2 or equivalent reader (Biotek, Winooski VT) using an excitation of 540 nm and an emission of 600 nm. Drug synergy was assessed via BLISS analysis in the Combenefit software (Cancer Research UK Cambridge Institute, Cambridge, UK). Data is analyzed using Prism software (Graphpad, San Diego, CA) to calculate IC50 values. Shifts in test compound IC50 values are reported from top-constrained combination therapy curves.

WM3629 cells = experiment: WM3629 Cell Proliferation Assay (1); assay type: cell-based
Protocol: WM3629 Cell Proliferation Assay (1)
WM3629 cells (#WM3629-01-0001) are obtained from Rockland Immunochemicals Inc (Gilbertsville, PA). Briefly, cells were grown in MCDB 153 medium (Sigma, #M7403, St. Louis, MO) supplemented with 20% Leibovitz's L-15 (ThermoFisher #11415-064, Waltham, MA), 2% heat inactivated fetal bovine serum (ThermoFisher, #A3840001, Waltham, MA), 5 μg/mL Insulin (Bovine Pancreas) (Sigma, #10516, St. Louis, MO), 1.68 mM Calcium Chloride (Sigma, #C-34006, St. Louis, MO) and 1% Penicillin/Streptomycin/L-Glutamine (ThermoFisher #10378016, Waltham, MA) at 37° C., 5% CO2, and 95% humidity. Cells are expanded until reaching 70-95% confluency at which point they are subcultured or harvested for assay use. A serial dilution of test compound is dispensed into a 96-well black clear bottom plate in triplicate. Four thousand five hundred cells are added per well in 200 μL complete growth medium in the 96-well plate. Plates are incubated for 67-72 hours at 37° C., 5% CO2, and 95% humidity. At the end of the incubation, 40 μL of a 440 μM solution of resazurin (Sigma, #199303, St. Louis, MO) in PBS is added to each well of the plate and plates are incubated for an additional 6-7 hours at 37° C., 5% CO2, and 95% humidity. Plates are read on a Synergy2 or equivalent reader (Biotek, Winooski VT) using an excitation of 540 nm and an emission of 600 nm. Data is analyzed using Prism software (GraphPad, San Diego, CA) to calculate IC50 values.

IC50 (Miapaca-2 cells) [nM] | Compound | IC50 (WM3629 cells) [nM]
100 to 500 | CCOc1cc(-c2cc(NC(=O)c3ccnc(C(F)(F)F)c3)ccc2C)cc(-c2ccnc(NC(=O)C3CC3)c2)n1 [Example 12] | –
≤ 100 | CC(=O)Nc1cc(-c2cc(-c3cc(NC(=O)c4ccnc(C(F)(F)F)c4)ccc3C)cc(N3CCOCC3)n2)ccn1 [Example 15] | –
≤ 100 | CC(=O)Nc1cc(-c2cc(-c3cc(NC(=O)c4ccnc(C(C)(C)C#N)c4)ccc3C)ccn2)ccn1 [Example 19] | –
– | Cc1ccc(NC(=O)c2ccnc(C(C)(C)F)c2)cc1-c1ccnc(-c2ccnc(NC(=O)C3CC3)c2)n1 [Example 186] | ≤ 100
– | Cc1ccc(NC(=O)c2ccnc(C3(C#N)CC3)c2)cc1-c1nccc(-c2ccnc(NC(=O)C3CC3)c2)n1 [Example 187] | ≤ 100
100 to 500 | Cc1ccc(NC(=O)c2ccnc(C(F)F)c2)cc1-c1ccnc(-c2ccnc(NC(=O)C3CC3)c2)n1 [Example 189] | –
≤ 100 | Cc1ncc(NC(=O)c2ccnc(C(C)(C)C#N)c2)cc1-c1ccnc(-c2ccnc(NC(=O)C3CC3)c2)n1 [Example 193] | –
100 to 500 | Cc1ccc(NC(=O)c2ccnc(C(C)(C)C#N)c2)cc1-c1cccc(-c2cc(NC(=O)C3(C)CC3)ncn2)c1 [Example 197] | –
– | Cc1cc(-c2cc(NC(=O)C3CC3)ncn2)cc(-c2cc(NC(=O)c3ccnc(C(C)(C)C#N)c3)ccc2C)c1 [Example 212] | ≤ 100
100 to 500 | CNC(=O)c1cc(-c2cc(-c3cc(NC(=O)c4ccnc(C(C)(C)F)c4)ccc3C)ccn2)ccn1 [Example 214] | ≤ 100
≤ 100 | Cc1ncc(NC(=O)c2ccnc(C(C)(C)C#N)c2)cc1-c1cccc(-c2ccnc(NC(=O)C3CC3)c2)c1 [Example 222] | ≤ 100
≤ 100 | Cc1ccc(NC(=O)c2ccnc(C(C)(C)C#N)c2)cc1-c1cccc(-c2ccnc(NC(=O)C3CC3)c2)c1 [Example 223] | –
≤ 100 | Cc1ccc(NC(=O)c2ccnc(C(C)(C)C#N)c2)cc1-c1cncc(-c2cc(NC(=O)C3CC3)ncn2)c1 [Example 224] | ≤ 100
≤ 100 | COC(=O)Nc1cc(-c2cccc(-c3cc(NC(=O)c4ccnc(C(C)(C)C#N)c4)cnc3C)c2)ncn1 [Example 225] | –
– | Cc1ccc(NC(=O)c2ccnc(C3CC3)c2)cc1-c1ccnc(-c2ccnc(NC(=O)C3CC3)c2)n1 [Example 229] | ≤ 100
≤ 100 | Cc1ccc(NC(=O)c2ccnc(C(C)(C)C#N)c2)cc1-c1cnnc(-c2ccnc(NC(=O)C3CC3)c2)c1 [Example 230] | –
100 to 500 | CNC(=O)c1cc(-c2cncc(-c3cc(NC(=O)c4ccnc(C(C)(C)C#N)c4)ccc3C)c2)ncn1 [Example 235] | ≤ 100
100 to 500 | Cc1ccc(NC(=O)c2ccnc(C(C)(C)C#N)c2)cc1-c1ccnc(-c2ccnc(NC(=O)C3(C#N)CC3)c2)n1 [Example 241] | –
≤ 100 | Cc1ccc(NC(=O)c2ccnc(C(C)(C)C#N)c2)cc1-c1cc(-c2ccnc(NC(=O)C3CC3)c2)cnn1 [Example 245] | ≤ 100
≤ 100 | Cc1ncc(NC(=O)c2ccnc(C(C)(C)F)c2)cc1-c1cccc(-c2cc(NC(=O)C3CC3)ncn2)c1 [Example 249] | ≤ 100
≤ 100 | Cc1ncc(NC(=O)c2ccnc(C(C)(C)C#N)c2)cc1-c1ccnc(-c2ccnc(NC(=O)C3CC3)c2)c1 [Example 251] | –
≤ 100 | Cc1ccc(NC(=O)c2ccnc(C(C)(C)C#N)c2)cc1-c1ccnc(-c2ccnc(NC(=O)C3CC3)c2)n1 [Example 257] | –
– | CNC(=O)c1cc(-c2cc(-c3cc(NC(=O)c4ccnc(C(C)(C)OC)c4)ccc3C)ccn2)ccn1 [Example 264] | ≤ 100
100 to 500 | CNC(=O)c1cc(-c2cc(-c3cc(NC(=O)c4ccnc(C5(C#N)CC5)c4)ccc3C)ccn2)ccn1 [Example 265] | –
≤ 100 | COC(C)(C)c1cc(C(=O)Nc2cnc(C)c(-c3cccc(-c4cc(NC(=O)C5CC5)ncn4)c3)c2)ccn1 [Example 274] | ≤ 100
≤ 100 | Cc1ncc(NC(=O)c2cnn(C(C)(C)C)c2)cc1-c1cccc(-c2cc(NC(=O)C3CC3)ncn2)c1 [Example 279] | –
